# Results taken from ChEMBL document CHEMBL1155532 (Bioorg Med Chem Lett, 2010).
# Tests used:
# [1] = target: T1, Fatty acid-binding protein, adipocyte (Homo sapiens, UniProt P15090); experiment: Displacement of 8-anilino-1-naphthalene-sulfonic acid from human His-FABP4 expressed in Escherichia coli BL21 (DE3) cells after 3 mins
# Target sequence in this assay (P15090 whole entry): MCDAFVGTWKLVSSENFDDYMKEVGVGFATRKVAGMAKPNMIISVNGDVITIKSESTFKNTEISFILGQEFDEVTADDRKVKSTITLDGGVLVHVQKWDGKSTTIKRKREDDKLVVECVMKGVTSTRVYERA
# [2] = target: T1, Fatty acid-binding protein, adipocyte; experiment: Displacement of 8-anilino-1-naphthalene-sulfonic acid from human His-FABP4 expressed in Escherichia coli BL21 (DE3) cells at 100 uM after 3 mins
# Target sequence in this assay (P15090 2-132 limits assumed): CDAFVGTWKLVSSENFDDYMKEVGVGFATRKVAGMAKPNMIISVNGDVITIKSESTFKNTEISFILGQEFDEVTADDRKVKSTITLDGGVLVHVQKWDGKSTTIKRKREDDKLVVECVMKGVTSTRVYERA
# [3] = target: Fatty acid-binding protein, heart (Homo sapiens, UniProt P05413); experiment: Displacement of 8-anilino-1-naphthalene-sulfonic acid from human His-FABP3 expressed in Escherichia coli BL21 (DE3) cells after 3 mins relative to linoleic acid
# Fatty acid-binding protein, heart, sequence (P05413 whole entry): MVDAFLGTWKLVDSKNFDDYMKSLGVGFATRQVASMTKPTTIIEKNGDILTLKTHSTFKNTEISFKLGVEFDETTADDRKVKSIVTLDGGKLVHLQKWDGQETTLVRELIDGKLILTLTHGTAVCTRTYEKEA
# [4] = target: T1, Fatty acid-binding protein, adipocyte; experiment: Displacement of 8-anilino-1-naphthalene-sulfonic acid from human His-FABP4 expressed in Escherichia coli BL21 (DE3) cells after 3 mins relative to linoleic acid
# Target sequence in this assay (P15090 whole entry): as the sequence (P15090 whole entry) above
# Homo sapiens [5] = species: Homo sapiens; experiment: Selectivity index, ratio of IC50 for His-human FABP3 to IC50 for human His-FABP4
# BL21-DE3 [6] = experiment: Displacement of 8-anilino-1-naphthalene-sulfonic acid from human FABP4 F16A mutant expressed in Escherichia coli BL21 (DE3) cells at 700 uM after 3 mins
# BL21-DE3 [7] = experiment: Displacement of 8-anilino-1-naphthalene-sulfonic acid from human FABP4 F16A mutant expressed in Escherichia coli BL21 (DE3) cells at 500 uM after 3 mins
# Homo sapiens [8] = species: Homo sapiens; experiment: Selectivity ratio of IC50 for human FABP4 F106A mutant to IC50 for human wild type FABP4
# Homo sapiens [9] = species: Homo sapiens; experiment: Selectivity ratio of IC50 for human FABP4 F126A mutant to IC50 for human wild type FABP4
# [10] = Displacement of 8-anilino-1-naphthalene-sulfonic acid from human FABP4 F16A mutant expressed in Escherichia coli BL21 (DE3) cells after 3 mins
Structure (SMILES),IC50 [1] [µM],inhibition [2] [%],IC50 [3] [µM],IC50 [4] [µM],Ratio IC50 (Homo sapiens [5]),Ratio IC50 (Homo sapiens [8]),Ratio IC50 (Homo sapiens [9]),IC50 [10] [µM],inhibition (BL21-DE3 [6]) [%],inhibition (BL21-DE3 [7]) [%]
c1cc(CSc2nc3ccccc3[nH]2)nc(CSc2nc3ccccc3[nH]2)c1,> 100,47.7,–,–,–,–,–,–,–,–
COc1ccc(-c2c(C(F)(F)F)nn(C)c2NC(=O)CSCC(=O)O)cc1,> 100,20.1,–,–,–,–,–,–,–,–
O=C(O)CSCC(=O)NCc1ccccc1N1CCCCC1,56.3,58.7,6.3,4.1,1.5,–,–,–,–,–
O=[N+]([O-])c1ccc(S(=O)(=O)c2ccccc2)cc1OS(=O)(=O)c1cc(Cl)cc(Cl)c1,> 100,40.7,–,–,–,–,–,–,–,–
COC(=O)c1cc(OC)c(OC)cc1NC(=O)CSCC(=O)O,> 100,46.9,–,–,–,–,–,–,–,–
O=C(O)CSCC(=O)Nc1cc(Cl)cc(Cl)c1,13.5,84.9,> 144,1,> 144,1.3,11.1,–,57,50.7
CCCCCCCC/C=C\CCCCCCCC(=O)O,–,66.8,–,–,–,–,–,–,–,–
O=C(O)CSCC(=O)NCc1c(Cl)cccc1Oc1ccccc1,42.2,62.5,1.9,3.1,0.6,3.4,6.6,76.5,–,–

# Continued, in another order:
IC50 [1] [µM],inhibition [2] [%],IC50 [3] [µM],IC50 [4] [µM],Ratio IC50 (Homo sapiens [5]),Ratio IC50 (Homo sapiens [8]),Ratio IC50 (Homo sapiens [9]),IC50 [10] [µM],Structure (SMILES),inhibition (BL21-DE3 [6]) [%],inhibition (BL21-DE3 [7]) [%]
> 100,37.1,–,–,–,–,–,–,O=c1[nH]nc(SCCS(=O)(=O)c2ccc(Cl)cc2Cl)n1-c1ccc2c(c1)OCCO2,–,–
59.5,56.2,> 432,4.4,> 99,–,–,–,O=C(O)CSCC(=O)Nc1ccc(F)c(Cl)c1,–,–
> 100,44.4,–,–,–,–,–,–,Cc1ccc(SC(CC(=O)c2ccc(C)cc2)C(=O)O)cc1 (stereo not drawn),–,–
–,81.4,–,–,–,–,–,–,CCCCC/C=C\C/C=C\CCCCCCCC(=O)O,39,36.9
